The subject of test [1] is A549. As to the kind of experiment: Antiproliferative activity against human A549 cells by CCK8 assay. The test is classed as functional, cell-based. A general note: Tetrazolium dyes change colour on reduction, which living cells bring about.
The subject of test [2] is MGC-803. The test is described as follows: Antiproliferative activity against human MGC-803 cells by CCK8 assay. The format is functional, cell-based.
Test [3] relates to MCF7. The test is described as follows: Antiproliferative activity against human MCF7 cells by CCK8 assay. The test is classed as functional, cell-based.
Test [4] relates to KYSE-30. The test is described as follows: Antiproliferative activity against human KYSE-30 cells by CCK8 assay. The test is classed as functional, cell-based.
For test [5], the target named is T1, NEDD8-activating enzyme E1 regulatory subunit (Homo sapiens, UniProt Q13564).
T1 sequence (Q13564 whole entry): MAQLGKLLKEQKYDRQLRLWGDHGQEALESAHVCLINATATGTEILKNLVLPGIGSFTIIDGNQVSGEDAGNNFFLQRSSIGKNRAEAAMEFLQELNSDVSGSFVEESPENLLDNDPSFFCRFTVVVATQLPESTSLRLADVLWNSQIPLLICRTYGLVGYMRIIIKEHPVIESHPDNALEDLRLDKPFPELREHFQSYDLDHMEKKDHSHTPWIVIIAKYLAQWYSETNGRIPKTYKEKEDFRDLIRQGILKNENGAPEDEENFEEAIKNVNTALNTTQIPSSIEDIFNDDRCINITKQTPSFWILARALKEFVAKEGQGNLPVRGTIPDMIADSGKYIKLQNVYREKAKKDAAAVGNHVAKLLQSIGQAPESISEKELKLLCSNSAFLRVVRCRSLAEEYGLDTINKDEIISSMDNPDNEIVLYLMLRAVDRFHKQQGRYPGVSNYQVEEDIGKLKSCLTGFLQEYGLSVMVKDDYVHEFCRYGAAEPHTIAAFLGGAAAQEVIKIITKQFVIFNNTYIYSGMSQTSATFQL
As to the kind of experiment: Inhibition of NAE (unknown origin).

As a reminder, the IC50 is the point on the concentration scale where inhibition reaches its midpoint. A lower IC50 goes with greater potency in that assay.

Each structure is given as a SMILES string.

Consider `O=C(Nc1nc2ccc(NC(=O)C3CCN(Cc4ccccc4)CC3)cc2s1)c1sccc1Br`, for which the IC50 was 2.47 µM in test [1], 3.31 µM in test [2], 2.89 µM in test [3] and 2.63 µM in test [4].
For `O=C(Nc1nc2ccc(NC(=O)C3CCN(Cc4ccccc4)CC3)cc2s1)c1ccc(Cl)o1` the same measures were 2.82 µM, 1.75 µM, 1.88 µM and 1.9 µM.
For `COc1cc(C(=O)Nc2nc3ccc(NC(=O)C4CCN(Cc5ccccc5)CC4)cc3s2)cc(OC)c1OC` the same measures were 5.6 µM, 4.96 µM, 4.15 µM and 1.08 µM.
The like results for `CCCc1ccc(C(=O)Nc2nc3ccc(NC(=O)C4CCN(Cc5ccccc5)CC4)cc3s2)cc1` were, in that order, 1.28 µM, 1.87 µM, 1.55 µM and 0.91 µM.
With `O=C(Nc1nc2ccc(NC(=O)C3CCN(Cc4ccccc4)CC3)cc2s1)c1ccc(C(F)(F)F)cc1`, the IC50 stood at 6.29 µM in test [1], 8.53 µM in test [2], 4.58 µM in test [3] and 1.25 µM in test [4].
For `N#Cc1ccc(C(=O)Nc2nc3ccc(NC(=O)C4CCN(Cc5ccccc5)CC4)cc3s2)cc1` the same measures were 3.31 µM, 4.74 µM, 13.1 µM and 1.41 µM.
For `O=C(Nc1nc2ccc(NC(=O)C3CCN(Cc4ccccc4)CC3)cc2s1)c1ccc2c(c1)OCO2` the same measures were 1.35 µM, 1.85 µM, 1.63 µM and 1.33 µM.
For `Cc1ccc(C(=O)Nc2nc3ccc(NC(=O)C4CCN(Cc5ccccc5)CC4)cc3s2)cc1` the same measures were 2.18 µM, 3.82 µM, 2.78 µM and 1.19 µM.
With `O=C(Nc1nc2ccc(NC(=O)C3CCN(Cc4ccccc4)CC3)cc2s1)c1cccs1`, the half-maximal inhibitory concentration (IC50) in test [1] was 1.7 µM; in test [2] it was 2.77 µM; in test [3] it was 3.24 µM; in test [4], 1.64 µM.
For `Nc1ccc(SCC(=O)Nc2ccc3nc(NC(=O)c4ccc(C(F)(F)F)cc4)sc3c2)cc1`, the IC50 in test [1] was 41.2 µM; in test [2], 4.91 µM; in test [3], over 100 µM; in test [4], 17.4 µM.
The like results for `CCCC(=O)Nc1nc2ccc(NC(=O)C3CCN(Cc4ccccc4)CC3)cc2s1` were, in that order, 29.1 µM, 30.1 µM, 37.5 µM and 22.7 µM.
For `O=C(Nc1nc2ccc(NC(=O)C3CCN(Cc4ccccc4)CC3)cc2s1)c1ccc2ccccc2c1` the same measures were 7.25 µM, 8.76 µM, 11.9 µM and 3 µM.
For `O=C(Nc1nc2ccc(NC(=O)C3CCN(Cc4ccccc4)CC3)cc2s1)c1ccc(F)cc1Cl` the same measures were 3.77 µM, 10.7 µM, 15.9 µM and 2.08 µM.
In test [5], `COc1ccccc1/C=C1\SC(=O)N(CCC(=O)Nc2ccc(S(N)(=O)=O)cc2)C1=O` had a concentration for half-maximal inhibition (IC50) of 12 µM. This lies in the double-digit micromolar range.
In the case of `O=C(Nc1nc2ccc(NC(=O)C3CCN(Cc4ccccc4)CC3)cc2s1)c1cccnc1`, the concentration for half-maximal inhibition (IC50) in test [1] was 20.4 µM; in test [2], 25.6 µM; in test [3], 23.9 µM; in test [4], 19.6 µM.
For the compound `C/C=C/C(=O)Nc1nc2ccc(NC(=O)C3CCN(Cc4ccccc4)CC3)cc2s1`, the half-inhibitory concentration (IC50) in test [1] came out at 12.8 µM; in test [2], 15.7 µM; in test [3], 11.9 µM; in test [4] it was 17.7 µM.
For `O=C(Nc1nc2ccc(NC(=O)C3CCN(Cc4ccccc4)CC3)cc2s1)c1ccc(F)c(F)c1` the same measures were 5.58 µM, 6.85 µM, 8.54 µM and 1.82 µM.
With `O=C(Nc1ccc2nc(NC(=O)C3COc4ccccc4O3)sc2c1)C1CCN(Cc2ccccc2)CC1` (stereo not given), the IC50 in test [1] worked out at 11.4 µM; in test [2], 11 µM; in test [3] it was 11.7 µM; in test [4], 13.8 µM.
As for `O=C(Nc1nc2ccc(NC(=O)C3CCN(Cc4ccccc4)CC3)cc2s1)c1ccc(F)cc1`, the half-inhibitory concentration (IC50) was 4.51 µM in test [1], 12.7 µM in test [2], 5.74 µM in test [3] and 1.08 µM in test [4].
The like results for `O=C(Nc1nc2ccc(NC(=O)C3CCN(Cc4ccccc4)CC3)cc2s1)c1ccccc1F` were, in that order, 5.26 µM, 12.9 µM, 11.4 µM and 2.29 µM.
For `O=C(Nc1nc2ccc(NC(=O)C3CCN(Cc4ccccc4)CC3)cc2s1)c1ccc(-c2ccccc2)cc1` the same measures were 8.13 µM, 7.84 µM, 10.7 µM and 2.88 µM.
`CCOc1cccc(F)c1C#Cc1cn([C@H]2O[C@@H](CNS(N)(=O)=O)[C@H](O)[C@@H]2O)c2ncnc(N)c12` had an IC50 in test [5] of 0.004 µM.
On to `O=C(Nc1nc2ccc(NC(=O)C3CCN(Cc4ccccc4)CC3)cc2s1)c1ccco1`, for which the IC50 in test [1] was 4.25 µM; in test [2] it was 5.09 µM; in test [3] it was 7.46 µM; in test [4] it was 7.41 µM.
On to `NS(=O)(=O)OC[C@@H]1C[C@@H](n2ccc3c(N[C@H]4CCc5ccccc54)ncnc32)C[C@@H]1O` [PEVONEDISTAT], for which the half-maximal inhibitory concentration (IC50) in test [1] turned out to be 1.64 µM; in test [2] it was 1.84 µM; in test [4], 3.75 µM.
As to `O=C(Nc1nc2ccc(NC(=O)C3CCN(Cc4ccccc4)CC3)cc2s1)c1ccccc1`, the IC50 was found to be 4.33 µM in test [1], 10.9 µM in test [2], 4.17 µM in test [3] and 3.22 µM in test [4].
Regarding `O=C(Nc1nc2ccc(NC(=O)C3CCN(Cc4ccccc4)CC3)cc2s1)c1cscn1`, the IC50 came out at 1.19 µM in test [1], 1.69 µM in test [2], 0.98 µM in test [3] and 0.73 µM in test [4].
The like results for `O=C(Nc1nc2ccc(NC(=O)C3CCN(Cc4ccccc4)CC3)cc2s1)c1cccc(F)c1` were, in that order, 4.94 µM, 13 µM, 7.32 µM and 1.71 µM.
For `O=C(Nc1nc2ccc(NC(=O)C3CCN(Cc4ccccc4)CC3)cc2s1)c1sccc1F` the same measures were 1.99 µM, 2.8 µM, 2.35 µM and 2.03 µM.
